Measurements published in ChEMBL document CHEMBL5096161, “Medulloblastoma drugs in development: Current leads, trials and drawbacks” (Eur J Med Chem, 2021).
In brackets after ≈: the same amount, converted by molar mass.

Tests used:
Daoy [1] = assay: Antitumor activity against human Daoy cells assessed as inhibition of cell proliferation; assay type: functional, cell-based
D283 Med [2] = assay: Antitumor activity against human D283 Med cells assessed as inhibition of cell proliferation; assay type: functional, cell-based
[3] = Antiproliferative activity against human D556 Med cells assessed as inhibition of cell proliferation measured after 4 days by WST-1 assay; assay type: functional, cell-based; settings: 96 h
Daoy [4] = assay: Antiproliferative activity against human Daoy cells assessed as inhibition of cell proliferation measured after 4 days by WST-1 assay; assay type: functional, cell-based; settings: 96 h
ONS-76 [5] = assay: Antitumor activity against human ONS-76 cells assessed as inhibition of cell growth incubated for 72 hrs by CellTiter-Glo luminescent assay; assay type: functional
[6] = Antitumor activity against human HD-MB03 cells assessed as inhibition of cell growth incubated for 72 hrs by CellTiter-Glo luminescent assay; assay type: functional
Daoy [7] = assay: Antitumor activity against human Daoy cells assessed as inhibition of cell growth incubated for 72 hrs by CellTiter-Glo luminescent assay; assay type: functional
[8] = Antitumor activity against human UW228 cells assessed as inhibition of cell growth incubated for 72 hrs by CellTiter-Glo luminescent assay; assay type: functional
[9] = Cytotoxicity against human D384 Med cells assessed as reduction in cell viability incubated for 48 hrs by Cell TiterGlo luminescent assay; assay type: functional, cell-based; settings: pooled result: one value given for 10 cell lines, strains, targets or settings
D283 Med [10] = assay: Antiproliferative activity against human D283 Med cells assessed as reduction in cell viability incubated for 48 hrs by MTT assay; assay type: functional, cell-based
Daoy [11] = assay: Antiproliferative activity against human Daoy cells assessed as reduction in cell viability incubated for 48 hrs by MTT assay; assay type: functional, cell-based
ONS-76 [12] = assay: Antiproliferative activity against human ONS-76 cells assessed as inhibition of cell growth incubated for 24 to 96 hrs by MTT assay; assay type: functional; settings: time 24-96 hrs
Daoy [13] = assay: Antiproliferative activity against human Daoy cells assessed as inhibition of cell growth incubated for 24 to 96 hrs by MTT assay; assay type: functional; settings: time 24-96 hrs
ONS-76 [14] = assay: Antitumor activity against human ONS-76 cells xenografted in athymic nude mouse assessed as inhibition of tumor growth at 100 mg/kg, po QD for 9 days; assay type: functional; settings: ONS-76, 216 h, time 9 day, read-out: TGI
Protein smoothened [15] = biological target: T1, Protein smoothened (Homo sapiens, UniProt Q99835, D473H); assay: Antagonist activity at resistant Smo D473H mutant (unknown origin) expressed in mouse C3H 10T1/2 cells cotransfected with Gli reporter gene assessed as Gli luciferase activity incubated for 24 hrs by dual luciferase assay; assay type: functional, cell-based
[16] = Ratio of AUC (0 to infinity) in brain to plasma of C57BL mouse at 20 mg/kg, iv by HPLC/MS/MS method; assay type: ADME, organism-based; settings: brain and plasma, read-out: Ratio AUC
[17] = Cytotoxicity against human D425 Med cells expressing Glt1-tTA:TRE-MYCN/Luc (GTML) assessed as reduction in cell viability incubated for 72 hrs by Resazurin assay; assay type: functional, cell-based
Daoy [18] = assay: Antiproliferative activity against human Daoy cells assessed as inhibition of cell growth incubated for 72 hrs by Alamar blue dye based fluorescence spectrophotometric assay; assay type: functional
[19] = Inhibition of hedgehog signalling in mouse NIH3T3 cells cotransfected with Gli/RE luciferase reporter gene assessed as Gli luciferase activity preincubated for 15 to 30 mins followed by ShhN stimulation and after 28 hrs by Steady-Glo reagent based luciferase assay
[20] = Antiproliferative activity against human pateint derived Medulloblastoma cells assessed as inhibition of cell growth incubated for 72 hrs by Alamar blue dye based fluorescence spectrophotometric assay; assay type: functional
[21] = Antitumor activity against human Med-211 FH cells xenografted in athymic nude mouse assessed as tumor regression at 75 mg/kg, po QD for 28 days; assay type: functional; settings: Med-211FH cell, 672 h, time 28 day, read-out: TGI
[22] = Antitumor activity against human Med-1712FH cells xenografted in athymic nude mouse assessed as tumor regression at 75 mg/kg, po QD for 28 days; assay type: functional; settings: Med-1712FH cell, 672 h, time 28 day, read-out: TGI
[23] = Anticancer activity against human MED-MEB-8A cells assessed as reduction in cell viability incubated for 72 hrs by CCK assay; assay type: functional, cell-based
[24] = Anticancer activity against human UW228 cells assessed as reduction in cell viability incubated for 72 hrs by CCK assay; assay type: functional, cell-based; settings: UW228, 72 h
[25] = Anticancer activity against human UW426 cells assessed as reduction in cell viability incubated for 72 hrs by CCK assay; assay type: functional, cell-based; settings: UW426, 72 h
[26] = Anticancer activity against mouse Ptch+/- MB55 cells assessed as reduction in cell viability incubated for 72 hrs by CellTiter-Glo luminescent assay; assay type: functional, cell-based
[27] = Anticancer activity against mouse Ptch+/- MB21 cells assessed as reduction in cell viability incubated for 72 hrs by CellTiter-Glo luminescent assay; assay type: functional, cell-based
[28] = Anticancer activity against mouse Ptch+/- Trp53-/- MB53 cells assessed as reduction in cell viability incubated for 72 hrs by CellTiter-Glo luminescent assay; assay type: functional, cell-based
[29] = Inhibition of hedgehog signalling in mouse NIH3T3 cells cotransfected with Gli luciferase reporter gene assessed as Gli luciferase activity incubated for 48 hrs by Bright-Glo reagent based luciferase assay; assay type: cell-based; settings: NIH3T3, 48 h
Protein smoothened [30] = biological target: T1, Protein smoothened; assay: Inhibition of Smo D473H mutant (unknown origin) expressed in mouse NIH3T3 cells cotransfected with Gli luciferase reporter gene assessed as Gli luciferase activity incubated for 48 hrs by Bright-Glo reagent based luciferase assay; assay type: cell-based
D283 Med [31] = assay: Antitumor activity against human D283 Med cells assessed as inhibition of cell proliferation incubated for 72 hrs by CellTiter-Glo luminescent assay; assay type: functional, cell-based
Daoy [32] = assay: Antitumor activity against human Daoy cells assessed as inhibition of cell proliferation incubated for 72 hrs by CellTiter-Glo luminescent assay; assay type: functional, cell-based

T1 sequence (Q99835 28-787 D473H limits assumed): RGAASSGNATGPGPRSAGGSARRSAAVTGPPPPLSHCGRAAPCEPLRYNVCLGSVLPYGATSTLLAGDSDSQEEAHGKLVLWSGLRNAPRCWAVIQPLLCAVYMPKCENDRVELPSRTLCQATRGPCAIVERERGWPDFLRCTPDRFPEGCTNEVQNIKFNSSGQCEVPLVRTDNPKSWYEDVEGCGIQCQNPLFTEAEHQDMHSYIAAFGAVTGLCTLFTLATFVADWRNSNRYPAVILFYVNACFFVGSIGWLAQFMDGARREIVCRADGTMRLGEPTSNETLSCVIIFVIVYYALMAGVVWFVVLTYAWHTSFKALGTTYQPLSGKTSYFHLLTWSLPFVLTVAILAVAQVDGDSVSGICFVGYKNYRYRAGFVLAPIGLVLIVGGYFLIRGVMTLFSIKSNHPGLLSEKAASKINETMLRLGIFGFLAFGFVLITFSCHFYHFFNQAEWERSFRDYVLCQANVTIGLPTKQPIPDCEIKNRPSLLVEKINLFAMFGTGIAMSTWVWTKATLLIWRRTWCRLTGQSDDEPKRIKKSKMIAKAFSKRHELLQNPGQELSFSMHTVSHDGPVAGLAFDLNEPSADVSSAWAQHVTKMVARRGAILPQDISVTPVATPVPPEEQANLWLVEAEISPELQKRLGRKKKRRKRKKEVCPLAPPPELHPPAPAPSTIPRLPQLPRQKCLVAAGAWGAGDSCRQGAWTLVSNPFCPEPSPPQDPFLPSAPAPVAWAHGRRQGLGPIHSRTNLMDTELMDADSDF

CCN1CCN(Cc2ccc(-c3cc4c(N[C@H](C)c5ccccc5)ncnc4[nH]3)cc2)CC1 [AEE-788]
IC50 (Daoy [1]): 1700 nM | IC50 (D283 Med [2]): 3800 nM

O=[As][As+](=O)[O-] (centres undefined) [ARSENIC TRIOXIDE]
IC50 [3]: 400 nM | IC50 (Daoy [4]): 400 nM

Cc1sc2c(c1C)C(c1ccc(Cl)cc1)=N[C@@H](CC(=O)Nc1ccc(O)cc1)c1nnc(C)n1-2 [BIRABRESIB]
GI50 (ONS-76 [5]): 160 nM | GI50 [6]: 160 nM | GI50 (Daoy [7]): 160 nM | GI50 [8]: 160 nM

Nc1cc(C(F)(F)F)c(-c2cc(N3CCOCC3)nc(N3CCOCC3)n2)cn1 [BUPARLISIB]
IC50 [9]: 279 nM

O=C(/C=C/c1ccc(CN(CCO)CCc2c[nH]c3ccccc23)cc1)NO [DACINOSTAT]
IC50 (D283 Med [10]): < 200 nM | IC50 (Daoy [11]): < 100 nM

CC1=C(/C=C/C(C)=C/C=C/C(C)=C/C(=O)Nc2ccc(O)cc2)C(C)(C)CCC1 [FENRETINIDE]
GI50 (ONS-76 [12]): 2000 nM | GI50 (Daoy [13]): 5000 nM

COc1cc2c(Oc3ccc(NC(=O)C4(C(=O)Nc5ccc(F)cc5)CC4)cc3F)ccnc2cc1OCCCN1CCOCC1 [FORETINIB]
inhibition in vivo at 100 mg/kg (ONS-76 [14]): 50%

Cc1c(Cc2ccccc2)nnc(N2CCN(c3cnc(C(C)(C)O)cn3)[C@H](C)C2)c1C [LEQ506]
IC50 (Protein smoothened [15]): 96 nM | Kp [16]: 0.69

CNC(=O)c1nn(C)c2c1C(C)(C)Cc1cnc(Nc3ccc(N4CCN(C)CC4)cc3)nc1-2 [MILCICLIB]
IC50 [17]: 940 nM

Cc1cn(-c2cc(NC(=O)c3ccc(C)c(Nc4nccc(-c5cccnc5)n4)c3)cc(C(F)(F)F)c2)cn1 [NILOTINIB]
IC50 (Daoy [18]): 6000 nM | IC50 [19]: 374 nM | IC50 [20]: 5000 nM

CC(=O)c1c(C)c2cnc(Nc3ccc(N4CCNCC4)cn3)nc2n(C2CCCC2)c1=O [PALBOCICLIB]
inhibition in vivo at 75 mg/kg [21]: 63% | inhibition in vivo at 75 mg/kg [22]: 63%

Cc1[nH]c2ccccc2c1CCNCc1ccc(/C=C/C(=O)NO)cc1 [PANOBINOSTAT]
IC50 [23]: 46 nM | IC50 [24]: 54 nM | IC50 [25]: 67 nM

Cn1cc(CNCC2CCN(c3ncc(C(=O)NO)cn3)CC2)c2ccccc21 [QUISINOSTAT]
IC50 (D283 Med [10]): < 200 nM | IC50 (Daoy [11]): < 100 nM

O=C(O)c1ccc2c(c1)nc(Nc1cccc(Cl)c1)c1ccncc12 [SILMITASERTIB]
IC50 [26]: 2500 nM | IC50 [27]: 2500 nM | IC50 [28]: 2500 nM

CCc1cc2c(c(OCC(F)(F)F)c(C(=O)NC3CCN(C(=O)CO)CC3)n2C)c(=O)n1CC(=O)c1ccccc1 [TAK-441]
IC50 [29]: 4.4 nM | IC50 (Protein smoothened [30]): 79 nM

Cc1c(Cl)cccc1Nc1ccccc1C(=O)O [TOLFENAMIC ACID]
IC50 (D283 Med [31]): 20.8 µg/mL (≈ 79.5 µM) | IC50 (Daoy [32]): 21.6 µg/mL (≈ 82.5 µM)
